Measured values reported in article PMC7930286 (Heliyon, 2021).

Legend:
[1] = tested on: α-amylase; assay: Inhibitory assay of α-amylase; format: biochemical; conditions: for Alpha-amylase % inhibition (mean ± SEM): n = 3
[2] = DPPH free radical scavenging assay; conditions: for DPPH Percent inhibition (mean ± S.E.M): n = 3
[3] = ABTS free radical scavenging assay; conditions: for ABTS percent inhibition (mean ± S.E.M): n = 3
[4] = target: butyrylcholinesterase (BChE) (Homo sapiens, UniProt P06276); assay: Anticholinesterase; format: biochemical; conditions: for inhibition at 62.5 µg/mL: read-out: Percent BChE inhibition (mean ± SEM), 62.5 μg/mL; for inhibition at 125 µg/mL: read-out: Percent BChE inhibition (mean ± SEM), 125 μg/mL; for inhibition at 250 µg/mL: read-out: Percent BChE inhibition (mean ± SEM), 250 μg/mL; for inhibition at 500 µg/mL: read-out: Percent BChE inhibition (mean ± SEM), 500 μg/mL; for inhibition at 1000 µg/mL: read-out: Percent BChE inhibition (mean ± SEM), 1000 μg/mL
[5] = target: α-glucosidase; assay: Inhibitory assay of α-glucosidase; format: biochemical; conditions: for Alpha-glucosidase %inhibition (mean ± SEM): n = 3
[6] = Solubility description of isolated compounds; format: physicochemical
[7] = target: acetylcholinesterase (AChE) (Homo sapiens, UniProt P22303); assay: biochemical; conditions: for inhibition at 62.5 µg/mL / inhibition at 250 µg/mL / inhibition at 500 µg/mL / inhibition at 1000 µg/mL: read-out: Percent AChE inhibition (mean ± SEM)
Chain of acetylcholinesterase (AChE) (P22303 32-614, species assumed): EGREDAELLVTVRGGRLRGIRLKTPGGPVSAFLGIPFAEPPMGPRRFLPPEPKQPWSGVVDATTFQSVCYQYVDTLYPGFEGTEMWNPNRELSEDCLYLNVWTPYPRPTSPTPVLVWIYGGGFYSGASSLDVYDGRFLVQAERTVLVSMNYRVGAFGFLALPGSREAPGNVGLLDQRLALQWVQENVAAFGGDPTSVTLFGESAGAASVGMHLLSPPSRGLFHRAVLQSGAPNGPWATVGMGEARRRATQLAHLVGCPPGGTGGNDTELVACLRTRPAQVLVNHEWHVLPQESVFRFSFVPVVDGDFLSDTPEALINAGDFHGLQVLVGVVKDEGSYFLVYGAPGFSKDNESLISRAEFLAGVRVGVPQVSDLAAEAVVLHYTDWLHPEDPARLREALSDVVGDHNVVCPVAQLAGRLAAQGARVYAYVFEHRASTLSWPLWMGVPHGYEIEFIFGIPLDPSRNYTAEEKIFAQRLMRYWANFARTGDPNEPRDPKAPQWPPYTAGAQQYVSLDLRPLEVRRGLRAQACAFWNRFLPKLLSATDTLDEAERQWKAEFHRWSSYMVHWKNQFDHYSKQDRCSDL

Chain of butyrylcholinesterase (BChE) (P06276 29-602, species assumed): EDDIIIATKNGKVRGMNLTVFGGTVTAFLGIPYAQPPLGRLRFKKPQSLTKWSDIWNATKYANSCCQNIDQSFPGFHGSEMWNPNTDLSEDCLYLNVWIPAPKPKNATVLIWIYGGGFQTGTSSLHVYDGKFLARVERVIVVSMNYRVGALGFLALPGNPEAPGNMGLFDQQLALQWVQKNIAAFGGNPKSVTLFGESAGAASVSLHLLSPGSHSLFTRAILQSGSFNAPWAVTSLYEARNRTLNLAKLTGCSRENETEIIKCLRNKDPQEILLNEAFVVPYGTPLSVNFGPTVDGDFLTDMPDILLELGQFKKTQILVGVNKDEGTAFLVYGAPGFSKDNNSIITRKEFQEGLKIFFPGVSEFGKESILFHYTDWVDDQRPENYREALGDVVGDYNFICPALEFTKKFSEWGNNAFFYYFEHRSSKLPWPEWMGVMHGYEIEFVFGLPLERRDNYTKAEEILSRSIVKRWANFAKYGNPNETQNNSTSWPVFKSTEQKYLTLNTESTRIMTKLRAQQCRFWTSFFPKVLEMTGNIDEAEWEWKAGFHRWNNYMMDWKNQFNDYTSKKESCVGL

**Q.** Which “Alpha-amylase % inhibition (mean ± SEM)” value ([1]; 125 μg/mL) does the source give for `C[C@H]1O[C@H](O[C@H]2[C@H](O)[C@@H](O)[C@@H](O[C@H]3[C@H](O)[C@@H](O)C(O)O[C@@H]3CO)O[C@@H]2CO)[C@H](O)[C@@H](O)[C@@H]1N[C@H]1C=C(CO)[C@@H](O)[C@H](O)[C@H]1O` (some centres unmarked) [Acarbose, reference compound] here?
**A.** 57.0 ± 1.2%

**Q.** And the “Alpha-amylase % inhibition (mean ± SEM)” value ([1]; 250 μg/mL)?
**A.** 66.4 ± 1.2%

**Q.** And the “Alpha-amylase % inhibition (mean ± SEM)” value ([1]; 500 μg/mL)?
**A.** 77.1 ± 1.4%

**Q.** And the “Alpha-amylase % inhibition (mean ± SEM)” value ([1]; 1000 μg/mL)?
**A.** 92.1 ± 0.8%

**Q.** Which “DPPH IC50” value [2] does the source give for `O=C1O[C@H]([C@@H](O)CO)C(O)=C1O` [Ascorbic acid, reference compound] here?
**A.** 38 µg/mL

**Q.** What about the “DPPH Percent inhibition (mean ± S.E.M)” value ([2]; 62.5 μg/mL) of the same molecule?
**A.** 52.2 ± 2.3%

**Q.** What about the “DPPH Percent inhibition (mean ± S.E.M)” value ([2]; 125 μg/mL) of the same molecule?
**A.** 63.2 ± 1.1%

**Q.** And the “DPPH Percent inhibition (mean ± S.E.M)” value ([2]; 250 μg/mL)?
**A.** 73.8 ± 2.2%

**Q.** What about the “DPPH Percent inhibition (mean ± S.E.M)” value ([2]; 500 μg/mL) of the same molecule?
**A.** 84.1 ± 0.4%

**Q.** And the “DPPH Percent inhibition (mean ± S.E.M)” value ([2]; 1000 μg/mL)?
**A.** 93.2 ± 0.1%

**Q.** What about the “ABTS IC50” value [3] of the same molecule?
**A.** 39 µg/mL

**Q.** What about the “ABTS percent inhibition (mean ± S.E.M)” value ([3]; 62.5 μg/mL) of the same molecule?
**A.** 52.1 ± 1.1%

**Q.** And the “ABTS percent inhibition (mean ± S.E.M)” value ([3]; 250 μg/mL)?
**A.** 72.1 ± 0.4%

**Q.** And the “ABTS percent inhibition (mean ± S.E.M)” value ([3]; 500 μg/mL)?
**A.** 83.1 ± 1.1%

**Q.** And the “ABTS percent inhibition (mean ± S.E.M)” value ([3]; 1000 μg/mL)?
**A.** 93.0 ± 0.7%

**Q.** Which “DPPH IC50” value [2] does the source give for `COc1ccc(C(=O)O)cc1OC` [Compound VI, 3,4-dimethoxy benzoic acid] here?
**A.** 67 µg/mL

**Q.** What about the “DPPH Percent inhibition (mean ± S.E.M)” value ([2]; 62.5 μg/mL) of the same molecule?
**A.** 48.2 ± 2.3 ^ns %

**Q.** What about the “DPPH Percent inhibition (mean ± S.E.M)” value ([2]; 125 μg/mL) of the same molecule?
**A.** 54.7 ± 2.1∗∗ %

**Q.** And the “DPPH Percent inhibition (mean ± S.E.M)” value ([2]; 250 μg/mL)?
**A.** 63.7 ± 0.8∗∗∗∗ %

**Q.** What about the “DPPH Percent inhibition (mean ± S.E.M)” value ([2]; 500 μg/mL) of the same molecule?
**A.** 72.3 ± 0.3∗∗∗∗ %

**Q.** And the “DPPH Percent inhibition (mean ± S.E.M)” value ([2]; 1000 μg/mL)?
**A.** 82.1 ± 1.2∗∗∗∗ %

**Q.** What about the “ABTS IC50” value [3] of the same molecule?
**A.** 67 µg/mL

**Q.** What about the “ABTS percent inhibition (mean ± S.E.M)” value ([3]; 62.5 μg/mL) of the same molecule?
**A.** 48.2 ± 1.3∗∗ %

**Q.** What about the “ABTS percent inhibition (mean ± S.E.M)” value ([3]; 250 μg/mL) of the same molecule?
**A.** 61.1 ± 1.4∗∗∗ %

**Q.** What about the “ABTS percent inhibition (mean ± S.E.M)” value ([3]; 500 μg/mL) of the same molecule?
**A.** 71.0 ± 1.6∗∗∗∗ %

**Q.** What about the “ABTS percent inhibition (mean ± S.E.M)” value ([3]; 1000 μg/mL) of the same molecule?
**A.** 81.2 ± 1.0∗∗∗∗ %

**Q.** And the “Percent BChE inhibition (mean ± SEM)” value ([4]; 1000 μg/mL, n = 3)?
**A.** 79.8 ± 1.4∗∗ %

**Q.** What about the inhibition at 62.5 µg/mL ([4]; n = 3) of the same molecule?
**A.** 47 ± 1.1%

**Q.** And the inhibition at 125 µg/mL ([4]; n = 3)?
**A.** 53.5 ± 1.6%

**Q.** And the inhibition at 250 µg/mL ([4]; n = 3)?
**A.** 61.4 ± 0.3%

**Q.** And the inhibition at 500 µg/mL ([4]; n = 3)?
**A.** 71.1 ± 1.6%

**Q.** And the “Alpha-glucosidase IC50” value [5]?
**A.** 84 µg/mL

**Q.** What about the “Alpha-glucosidase %inhibition (mean ± SEM)” value ([5]; 125 μg/mL) of the same molecule?
**A.** 54.3 ± 1.5∗∗∗ %

**Q.** What about the “Alpha-glucosidase %inhibition (mean ± SEM)” value ([5]; 250 μg/mL) of the same molecule?
**A.** 62.5 ± 2.4∗∗∗ %

**Q.** What about the “Alpha-glucosidase %inhibition (mean ± SEM)” value ([5]; 500 μg/mL) of the same molecule?
**A.** 68.2 ± 1.7∗∗ %

**Q.** What about the “Alpha-glucosidase %inhibition (mean ± SEM)” value ([5]; 1000 μg/mL) of the same molecule?
**A.** 84.6 ± 1.5∗∗∗∗ %

**Q.** What about the “Alpha-amylase IC50” value [1] of the same molecule?
**A.** 112 µg/mL

**Q.** What about the “Alpha-amylase % inhibition (mean ± SEM)” value ([1]; 125 μg/mL) of the same molecule?
**A.** 50.3 ± 2.4∗∗ %

**Q.** What about the “Alpha-amylase % inhibition (mean ± SEM)” value ([1]; 250 μg/mL) of the same molecule?
**A.** 59.1 ± 1.9∗∗∗∗ %

**Q.** What about the “Alpha-amylase % inhibition (mean ± SEM)” value ([1]; 500 μg/mL) of the same molecule?
**A.** 71.3 ± 1.7∗∗∗∗ %

**Q.** And the “Alpha-amylase % inhibition (mean ± SEM)” value ([1]; 1000 μg/mL)?
**A.** 79.0 ± 3.2∗∗∗∗ %

**Q.** And the “solubility (description)” value [6]?
**A.** soluble in organic solvents

**Q.** And the IC50 [7]?
**A.** 494 µM

**Q.** What about the inhibition at 62.5 µg/mL [7] of the same molecule?
**A.** 47.2 ± 1.5%

**Q.** What about the inhibition at 250 µg/mL [7] of the same molecule?
**A.** 62.1 ± 2%

**Q.** What about the inhibition at 500 µg/mL [7] of the same molecule?
**A.** 71.2 ± 1.8%

**Q.** And the inhibition at 1000 µg/mL [7]?
**A.** 80.7 ± 1.1%

**Q.** For `CCCCCCCOc1ccc(C(=O)O)cc1` [Compound VII, 4-heptyloxy benzoic acid], which “DPPH IC50” value [2] is on record?
**A.** 118 µg/mL

**Q.** What about the “DPPH Percent inhibition (mean ± S.E.M)” value ([2]; 62.5 μg/mL) of the same molecule?
**A.** 46.7 ± 2.1∗∗ %

**Q.** And the “DPPH Percent inhibition (mean ± S.E.M)” value ([2]; 125 μg/mL)?
**A.** 51.9 ± 1.3∗∗ %

**Q.** And the “DPPH Percent inhibition (mean ± S.E.M)” value ([2]; 250 μg/mL)?
**A.** 62.5 ± 1.1∗∗∗∗ %

**Q.** What about the “DPPH Percent inhibition (mean ± S.E.M)” value ([2]; 500 μg/mL) of the same molecule?
**A.** 71.2 ± 1.3∗∗∗∗ %

**Q.** What about the “DPPH Percent inhibition (mean ± S.E.M)” value ([2]; 1000 μg/mL) of the same molecule?
**A.** 80.4 ± 1.1∗∗∗∗ %

**Q.** What about the “ABTS IC50” value [3] of the same molecule?
**A.** 115 µg/mL

**Q.** What about the “ABTS percent inhibition (mean ± S.E.M)” value ([3]; 62.5 μg/mL) of the same molecule?
**A.** 46.1 ± 1.9∗∗ %

**Q.** What about the “ABTS percent inhibition (mean ± S.E.M)” value ([3]; 250 μg/mL) of the same molecule?
**A.** 62.1 ± 1.3∗∗∗ %

**Q.** And the “ABTS percent inhibition (mean ± S.E.M)” value ([3]; 500 μg/mL)?
**A.** 71.2 ± 2.1∗∗∗∗ %

**Q.** And the “ABTS percent inhibition (mean ± S.E.M)” value ([3]; 1000 μg/mL)?
**A.** 80.1 ± 1.0∗∗∗∗ %

**Q.** What about the IC50 ([4]; BChE IC50) of the same molecule?
**A.** 381 µM

**Q.** What about the inhibition at 62.5 µg/mL ([4]; n = 3) of the same molecule?
**A.** 47.2 ± 1.2%

**Q.** And the inhibition at 125 µg/mL ([4]; n = 3)?
**A.** 53.4 ± 1.1%

**Q.** What about the inhibition at 250 µg/mL ([4]; n = 3) of the same molecule?
**A.** 62.1%

**Q.** And the inhibition at 500 µg/mL ([4]; n = 3)?
**A.** 71.1 ± 0.8%

**Q.** What about the inhibition at 1000 µg/mL ([4]; n = 3) of the same molecule?
**A.** 80 ± 1.1%

**Q.** What about the “Alpha-glucosidase IC50” value [5] of the same molecule?
**A.** 108 µg/mL

**Q.** What about the “Alpha-amylase IC50” value [1] of the same molecule?
**A.** 110 µg/mL

**Q.** What about the “Alpha-amylase % inhibition (mean ± SEM)” value ([1]; 125 μg/mL) of the same molecule?
**A.** 51.4 ± 1.5∗∗∗ %

**Q.** What about the “Alpha-amylase % inhibition (mean ± SEM)” value ([1]; 250 μg/mL) of the same molecule?
**A.** 61.2 ± 2.2∗ %

**Q.** And the “Alpha-amylase % inhibition (mean ± SEM)” value ([1]; 500 μg/mL)?
**A.** 64.5 ± 2.8∗∗ %

**Q.** What about the “Alpha-amylase % inhibition (mean ± SEM)” value ([1]; 1000 μg/mL) of the same molecule?
**A.** 73.3 ± 1.1∗∗∗∗ %

**Q.** What about the “solubility (description)” value [6] of the same molecule?
**A.** soluble in organic solvents

**Q.** And the IC50 [7]?
**A.** 377 µM

**Q.** What about the inhibition at 62.5 µg/mL [7] of the same molecule?
**A.** 47.8 ± 1.3%

**Q.** And the inhibition at 250 µg/mL [7]?
**A.** 62.3 ± 1.1%

**Q.** What about the inhibition at 500 µg/mL [7] of the same molecule?
**A.** 71.5 ± 1.6%

**Q.** And the inhibition at 1000 µg/mL [7]?
**A.** 80.1 ± 1.2%

**Q.** Which inhibition at 62.5 µg/mL ([4]; n = 3) does the source give for `COc1ccc2c3c1O[C@H]1C[C@@H](O)C=C[C@@]31CCN(C)C2` [Galantamine, reference compound] here?
**A.** 54.1 ± 1%

**Q.** And the inhibition at 250 µg/mL ([4]; n = 3)?
**A.** 71.8 ± 1.5%

**Q.** What about the inhibition at 500 µg/mL ([4]; n = 3) of the same molecule?
**A.** 81.8 ± 1.4%

**Q.** What about the inhibition at 1000 µg/mL ([4]; n = 3) of the same molecule?
**A.** 92 ± 0.8%
